Data: patent US20230277494A1, “TRANS-CROCETIN COMPOSITIONS AND TREATMENT REGIMENS” (priority 2020, published 2023)

Tests used:
[1] = human, in vivo; cited from earlier work
[2] = mouse, in vivo, iv
[3] = diffusion of oxygen in plasma, FIG. 12; cited from earlier work
[4] = Phase 2 clinical study of liposomal trans-crocetin, pharmacokinetics; details: human, in vivo
From the text: A phase 2 clinical study was initiated to assess the safety and efficacy of liposomal trans-crocetin in patients with acute respiratory distress syndrome due to COVID-19 disease. This was an open label phase II study of treatment with liposomal trans-crocetin in patients who experience severe acute respiratory distress syndrome (ARDS) and were receiving artificial respiratory support due to COVID-19. The purpose of this study was to evaluate the improvement in PaO2/FiO2 by more than 25% in two cohorts of patients treated liposomal trans-crocetin. In the first cohort, patients received trans-crocetin at a dose of 0.25 mg/kg administered as intravenous (IV) bolus every 3 hours. The second cohort was treated by a liposomal formulation containing trans-crocetin. […] Pharmacokinetic assessment was carried out to identify an optimal dose and schedule. […] Secondary outcome measures included (1) proportion of patients with a PaO2/FiO2 ratio above 200 mm Hg (Time Frame: 24, 48 and 72 hours), and (2) all cause mortality (Time Frame: 28 days).
The primary purpose of this study was to determine a safe dosing regimen of liposomal trans-crocetin and to assess preliminary efficacy as measured by improvement in PaO2/FiO2 by more than 25% in patients treated with liposome encapsulated trans-crocetin, as well as safety and the pharmacokinetic profile of liposome encapsulated trans-crocetin. […]

SMILES	safety in clinical trials [1]	Cmax [2]	improvement in diffusion capacity [3]	AUC and Cmax across a wide range of body weights [4]
CC(/C=C/C=C(\C)C(=O)[O-])=C\C=C\C=C(C)\C=C\C=C(/C)C(=O)[O-].[Na+].[Na+] [STC free drug, sodium trans-crocetinate]	no safety concerns	360 µg/mL	–	–
CC(/C=C/C=C(\C)C(=O)O)=C\C=C\C=C(C)\C=C\C=C(/C)C(=O)O [trans-crocetin]	–	–	30%	stable levels
